# pKd: −log10 of the molar value. Read-outs that look alike come from different tables or passages of the source.
# Legend:
# Hsp70 [1] = molecular target: T1, Hsp70 (Homo sapiens, UniProt P0DMV8); test: Measurement of affinity for Hsp70 (BIACORE T100, CM5 chip); type: binding; settings: for effect in preliminary screening of binding to Hsp70, compared with positive compound VER-155008: at 10 μm; for pKd: steady state model, 25° C., PBS containing 5% DMSO
# T1 construct: purchased Enzo Life Sciences ADI-ESP-550-D
# Procedure: 1. Instrument: BIACORE T100 biomolecular interaction analyzer (GE, USA)
# 2. Reagents: PBS Buffer (×10), P20, CM5 chip (GE, USA), Hsp70 (human, ADI-ESP-550-D), manufactured by Enzo Life Sciences.
# 30 mM mother liquor of compound was formulated with DMSO, which was diluted to 2 mM application solution with DMSO before use. 5 μl of the application solution was taken and diluted with 95 μl 1.05×PBS to 100 μM, and then diluted in turn with PBS containing 5% DMSO to 10, 3, 1, 0.3, 0.1, 0.03, 0.01, 0.003 μM, […]. PBS containing 5% DMSO was used as solvent control.
# Hsp70 protein was diluted with 10 mmol/L sodium acetate buffer solution (pH 5.0) to 30 μg/ml, and coupled directly on a hydrophilic carboxylmethyl dextran matrix sensor chip M5 through normalized primary amine coupling reaction, RU=11209, and then the chip was balanced for 1-2 h with PBS Buffer at […].
# At a flow rate of […], with PBS containing 5% DMSO as mobile phase, at 25° C., the compound was introduced in the sequence of 0.003, 0.01, 0.03, 0.1, 0.3, 1, 3 and 10 μM, with binding time 90 seconds, and dissociation time 120 seconds.
# According to binding characteristics between the compounds and protein, the binding constant (equilibrium dissociation constant KD) between drugs and protein was calculated by selecting steady state model with the formula: Conc*Rmax/[conc+KD]+offset.
# At a flow rate of […], PBS containing 5% DMSO as mobile phase, at 25° C., the compound was injected in the order of 0.003, 0.01, 0.03, 0.1, 0.3, 1, 3, and 10 μM, with the binding time of 90 sec, and the dissociation time of 120 sec.
# BT/Lap^R1.0 = test: Cell survival (ATPlite/CellTiter-Glo luminescence), alone and combined with lapatinib; type: cell-based, human; settings: BT/Lap^R1.0 cells; for Survival rate %: 72 hours
# Procedure: (§1) Cells plating: a 100 mm culture dish with overgrown adherent cells was digested with 1 ml 0.25% trypsin (GIBCO) at 37° C. for 5 min, and the reaction was terminated with 2 ml culture medium (containing 10% FBS, GIBCO). The cells were scattered and collected, after counting, diluted to 1×10^5 cells/ml, and seeded into a 96-well plate at 50 μl/well, 5000 cells/well, excluding the peripheral circle of wells to which no cell was added, but PBS was added, 60 wells in total, and then incubated at 37° C. for 24 hours for adhering.
# (§2) Test after incubation at 37° C. for 72 hours: […] of ATPlite kit substrate solution was added in each well, and vibrated for 3 min, followed by placing aside in darkness for 10 min, and then supernatant 100 μl/well was taken and placed on aluminescence test plate; the luminescence test plate that has been fully incubated was placed in a luminescence test instrument, to read luminescence value.
# (§3) (1) Cell survival rate (%)=Experimental group RLU/control group RLU×100%. The experimental data were subjected to data analysis and processing by utilizing GraphPad software.
# (§4) (2) The nature of interaction between two drugs was evaluated by using coefficient of drug interaction (CDI), CDI being calculated as follows: CDI=AB/(A×B)×100%. As calculated according to the number of viable cells (luminescence value), when CDI<1, the nature of interaction between two drugs is synergism; when CDI<0.7, the synergism is very significant; when CDI=1, the nature of interaction between two drugs is addition; when CDI>1, the nature of interaction between two drugs is antagonism.
# BT474 = test: as above; type: cell-based, human; settings: BT474 cells; for Survival rate %: 72 hours
# Procedure: as §1, §2, §3, §4
# MDA-MB-361 = test: as above; type: cell-based, human; settings: MDA-MB-361 cells, 72 hours
# Procedure: as §1, §2, §3, §4
# SK-BR3 = test: as above; type: cell-based, human; settings: SK-BR3 cells; for Survival rate %: 72 hours
# Procedure: as §1, §2, §3, §4
# SK/Lap^R1.0 = test: as above; type: cell-based, human; settings: SK/Lap^R1.0 cells, 72 hours
# Procedure: as §1, §2, §3, §4
# Hsp70 [2] = molecular target: T1, Hsp70; settings: literature value (Cancer Chemother Pharmacol 2010, 66: 535-545); read-out: affinity for Hsp70, literature value; cited from earlier work
# MDA-MB-453 = test: Cell survival (ATPlite/CellTiter-Glo luminescence), alone and combined with lapatinib; type: cell-based, human; settings: MDA-MB-453 cells; for Survival rate %: 72 hours
# Procedure: as §1, §2, §3, §4
# [3] = Lapatinib 1 μM alone (Example 30 0 μM)
# [4] = Example 30 10 μM alone (Lapatinib 0)
# [5] = Example 30 10 μM combined with Lapatinib 1 μM
# [6] = Example 30 10 μM with Lapatinib 1 μM, CDI<1 synergism
# T1 sequence (P0DMV8 whole entry): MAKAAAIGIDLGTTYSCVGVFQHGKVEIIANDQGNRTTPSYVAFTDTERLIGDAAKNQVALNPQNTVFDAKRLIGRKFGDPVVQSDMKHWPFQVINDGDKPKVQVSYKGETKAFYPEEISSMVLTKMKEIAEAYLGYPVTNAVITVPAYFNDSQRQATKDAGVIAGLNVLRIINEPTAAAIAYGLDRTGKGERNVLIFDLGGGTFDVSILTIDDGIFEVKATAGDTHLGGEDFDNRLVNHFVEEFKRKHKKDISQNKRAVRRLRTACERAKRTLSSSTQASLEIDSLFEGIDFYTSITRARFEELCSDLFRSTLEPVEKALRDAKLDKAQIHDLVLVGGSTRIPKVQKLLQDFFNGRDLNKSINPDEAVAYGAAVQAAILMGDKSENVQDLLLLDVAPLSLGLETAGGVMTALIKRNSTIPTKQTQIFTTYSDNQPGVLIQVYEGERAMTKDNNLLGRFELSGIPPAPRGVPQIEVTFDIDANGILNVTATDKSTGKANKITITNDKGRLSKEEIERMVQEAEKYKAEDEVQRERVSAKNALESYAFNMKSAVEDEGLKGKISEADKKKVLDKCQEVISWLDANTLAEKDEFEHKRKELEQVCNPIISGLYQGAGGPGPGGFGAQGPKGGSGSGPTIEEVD
compound,measurement,setting,value
"COc1ccnc(N2CCC(N(C)C(=O)Cn3cncn3)CC2)n1 [Example 42, N-methyl-N-[1-(4-methoxypyrimidin-2-yl)piperidin-4-yl]-2-(1H-1,2,4-triazol-1-yl) acetamide]","effect in preliminary screening of binding to Hsp70, compared with positive compound VER-155008",Hsp70 [1],equivalent to that of positive compound VER-155008
same,pKd,Hsp70 [1],6.36
"CS(=O)(=O)CCNCc1ccc(-c2ccc3ncnc(Nc4ccc(OCc5cccc(F)c5)c(Cl)c4)c3c2)o1 [Lapatinib, reference compound]",Survival rate %,BT/Lap^R1.0; [3],53.0%
same,Survival rate %,BT474; [3],25.1%
same,Survival rate %,MDA-MB-361; [3],70.4%
same,Survival rate %,SK-BR3; [3],26.3%
same,Survival rate %,SK/Lap^R1.0; [3],92.7%
"COc1nccc(N2CCC(N(C)C(=O)OC(C)(C)C)CC2)n1 [Example 5, t-butyl N-methyl-N-[1-(2-methoxypyrimidin-4-yl)piperidin-4-yl]carbamate]","effect in preliminary screening of binding to Hsp70, compared with positive compound VER-155008",Hsp70 [1],equivalent to that of positive compound VER-155008
"CSc1nccc(N2CCC(N(C)C(=O)O[C@H]3CCN(S(=O)(=O)c4cccs4)C3)CC2)n1 [Example 13, (S)-[1-(2-thienylsulfonyl)pyrrolidin-3-yl] N-methyl-N-[1-(2-methylthiopyrimidin-4-yl)piperidin-4-yl]carbamate]","effect in preliminary screening of binding to Hsp70, compared with positive compound VER-155008",Hsp70 [1],equivalent to that of positive compound VER-155008
same,pKd,Hsp70 [1],6.28
"CSc1nccc(N2CCC(N(C)C(=O)OC(C)(C)C)CC2)n1 [Example 6, t-butyl N-methyl-N-[1-(2-methylthiopyrimidin-4-yl)piperidin-4-yl]carbamate]","effect in preliminary screening of binding to Hsp70, compared with positive compound VER-155008",Hsp70 [1],equivalent to that of positive compound VER-155008
same,pKd,Hsp70 [1],4.90
N#Cc1ccc(COC[C@H]2O[C@@H](n3c(NCc4ccc(Cl)c(Cl)c4)nc4c(N)ncnc43)[C@H](O)[C@@H]2O)cc1 [VER-155008],pKd,Hsp70 [2],6.52
"CN(C(=O)OC(C)(C)C)C1CCN(c2nccc(Cl)n2)CC1 [Example 1, t-butyl N-methyl-N-[1-(4-chloropyrimidin-2-yl)piperidin-4-yl]carbamate]","effect in preliminary screening of binding to Hsp70, compared with positive compound VER-155008",Hsp70 [1],equivalent to that of positive compound VER-155008
same,pKd,Hsp70 [1],5.66
"CN(C(=O)OC(C)(C)C)C1CCN(c2cc(Cl)ncn2)CC1 [Example 3, t-butyl N-methyl-N-[1-(6-chloropyrimidin-4-yl)piperidin-4-yl]carbamate]","effect in preliminary screening of binding to Hsp70, compared with positive compound VER-155008",Hsp70 [1],equivalent to that of positive compound VER-155008
same,pKd,Hsp70 [1],6.28
"CN(C(=O)Cn1ccnc1)C1CCN(c2nccc(Cl)n2)CC1 [Example 30, N-methyl-N-[1-(4-chloropyrimidin-2-yl)piperidin-4-yl]-[2-(imidazol-1-yl)]acetamide]",Survival rate %,BT/Lap^R1.0; [4],92.5%
same,Survival rate %,BT/Lap^R1.0; [5],50.6%
same,CDI (coefficient of drug interaction),BT/Lap^R1.0; [6],1.03
same,Survival rate %,BT474; [4],93.5%
same,Survival rate %,BT474; [5],24.8%
same,CDI (coefficient of drug interaction),BT474; [6],1.05
same,Survival rate %,MDA-MB-361; [4],104.1%
same,Survival rate %,MDA-MB-361; [5],69.1%
same,Survival rate %,MDA-MB-453; [4],82.8%
same,Survival rate %,MDA-MB-453; [5],36.6%
same,CDI (coefficient of drug interaction),MDA-MB-453; [6],1.26
same,Survival rate %,SK-BR3; [4],83.8%
same,Survival rate %,SK-BR3; [5],24.9%
same,CDI (coefficient of drug interaction),SK-BR3; [6],1.13
same,Survival rate %,SK/Lap^R1.0; [4],94.2%
same,Survival rate %,SK/Lap^R1.0; [5],56.9%
same,"effect in preliminary screening of binding to Hsp70, compared with positive compound VER-155008",Hsp70 [1],equivalent to that of positive compound VER-155008
same,pKd,Hsp70 [1],6.65
"CN(C(=O)OC(C)(C)C)C1CCN(c2ccnc(Cl)n2)CC1 [Example 2, t-butyl N-methyl-N-[1-(2-chloropyrimidin-4-yl)piperidin-4-yl]carbamate]","effect in preliminary screening of binding to Hsp70, compared with positive compound VER-155008",Hsp70 [1],equivalent to that of positive compound VER-155008
same,pKd,Hsp70 [1],6.61

# — patent publication US10301279B2, “Piperidine carboxamide compound, preparation method, and use thereof” (Institute of Pharmacology and Toxicology Academy of …, priority 2013, dated 2019)
